Test system: KRAS PDC multicell spheroid viability
Assay: Anticancer human tumor 825966-067-R-J1-PDC patient-derived colon carcinoma cell line growth inhibition [KRAS2]
Conditions: for IC50: curve of first compound; for viability, T/C: stronger effect = lower value
In short: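 Combination screen of spheroid viability in tumor-cell co-cultures with endothelial (HUVEC) and mesenchymal stem cell stroma. Each agent was tested in half-log dilutions, topping at clinical Cmax or at 10 microM without a known Cmax.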

[1] = second compound 0.1 µM, first compound 0.01 µM
[2] = second compound 0.1 µM, first compound 0.0316 µM
[3] = second compound 0.1 µM, first compound 0.1 µM
[4] = second compound 0.1 µM, first compound 0.316 µM
[5] = second compound 0.1 µM, first compound 1 µM
[6] = second compound 0.1 µM, first compound 3.16 µM
[7] = second compound 0.316 µM, first compound 0.01 µM
[8] = second compound 0.316 µM, first compound 0.0316 µM
[9] = second compound 0.316 µM, first compound 0.1 µM
[10] = second compound 0.316 µM, first compound 0.316 µM
[11] = second compound 0.316 µM, first compound 1 µM
[12] = second compound 0.316 µM, first compound 3.16 µM
[13] = second compound 1 µM, first compound 0.01 µM
[14] = second compound 1 µM, first compound 0.0316 µM
[15] = second compound 1 µM, first compound 0.1 µM
[16] = second compound 1 µM, first compound 0.316 µM
[17] = second compound 1 µM, first compound 1 µM
[18] = second compound 1 µM, first compound 3.16 µM
[19] = second compound 3.16 µM, first compound 0.01 µM
[20] = second compound 3.16 µM, first compound 0.0316 µM
[21] = second compound 3.16 µM, first compound 0.1 µM
[22] = second compound 3.16 µM, first compound 0.316 µM
[23] = second compound 3.16 µM, first compound 1 µM
[24] = second compound 3.16 µM, first compound 3.16 µM
[25] = second compound 10 µM, first compound 0.01 µM
[26] = second compound 10 µM, first compound 0.0316 µM
[27] = second compound 10 µM, first compound 0.1 µM
[28] = second compound 10 µM, first compound 0.316 µM
[29] = second compound 10 µM, first compound 1 µM
[30] = second compound 10 µM, first compound 3.16 µM
[31] = second compound 0.1 µM, first compound 10 µM
[32] = second compound 0.316 µM, first compound 10 µM
[33] = second compound 1 µM, first compound 10 µM
[34] = second compound 3.16 µM, first compound 10 µM
[35] = second compound 10 µM, first compound 10 µM
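Also: spheroids exposed to compounds for 7 days.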
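For viability, T/C in this document: 100% = DMSO vehicle control viability.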

CC1COCCN1c1cc(-c2ccnn2C)c2ccnc(-c3ccn[nH]3)c2n1 (configuration not stated) + C=CC(=O)N1CCN(c2nc(=O)n(-c3c(C)ccnc3C(C)C)c3nc(-c4c(O)cccc4F)c(F)cc23)C(C)C1
IC50 (second compound 0.1 µM): 308 nM | IC50 (second compound 0.316 µM): > 3160 nM | IC50 (second compound 1 µM): 263 nM | IC50 (second compound 3.16 µM): 3160 nM | IC50 (second compound 10 µM): > 3160 nM | viability, T/C [1]: 110% | viability, T/C [2]: 135% | viability, T/C [3]: 123% | viability, T/C [4]: 41.5% | viability, T/C [5]: 56.2% | viability, T/C [6]: 47.4% | viability, T/C [7]: 137% | viability, T/C [8]: 142% | viability, T/C [9]: 72.9% | viability, T/C [10]: 60.3% | viability, T/C [11]: 44.9% | viability, T/C [12]: 60.4% | viability, T/C [13]: 137% | viability, T/C [14]: 125% | viability, T/C [15]: 71% | viability, T/C [16]: 41.5% | viability, T/C [17]: 51.1% | viability, T/C [18]: 41.4% | viability, T/C [19]: 106% | viability, T/C [20]: 146% | viability, T/C [21]: 70.4% | viability, T/C [22]: 70.8% | viability, T/C [23]: 51.2% | viability, T/C [24]: 43% | viability, T/C [25]: 137% | viability, T/C [26]: 108% | viability, T/C [27]: 64.6% | viability, T/C [28]: 75.8% | viability, T/C [29]: 59.1% | viability, T/C [30]: 47.2%

CC(=O)OC12COC1CC(O)C1(C)C(=O)C(O)C3=C(C)C(OC(=O)C(O)C(NC(=O)OC(C)(C)C)c4ccccc4)CC(O)(C(OC(=O)c4ccccc4)C21)C3(C)C (configuration not stated) + CNCc1ccccc1-c1csc(C(C)Nc2nc(C)nc3cc(OC)c(OC)cc23)c1
IC50 (second compound 0.1 µM): < 10 nM | IC50 (second compound 0.316 µM): < 10 nM | IC50 (second compound 1 µM): < 10 nM | IC50 (second compound 3.16 µM): < 10 nM | IC50 (second compound 10 µM): < 10 nM | viability, T/C [1]: 21.7% | viability, T/C [2]: 14.4% | viability, T/C [3]: 17.6% | viability, T/C [4]: 15.7% | viability, T/C [5]: 18.1% | viability, T/C [6]: 23.4% | viability, T/C [7]: 17.2% | viability, T/C [8]: 10.2% | viability, T/C [9]: 11.7% | viability, T/C [10]: 11.5% | viability, T/C [11]: 14.3% | viability, T/C [12]: 18.6% | viability, T/C [13]: 12.6% | viability, T/C [14]: 17.5% | viability, T/C [15]: 11.6% | viability, T/C [16]: 13% | viability, T/C [17]: 15.5% | viability, T/C [18]: 16.2% | viability, T/C [19]: 0.14% | viability, T/C [20]: 15.2% | viability, T/C [21]: 1.18% | viability, T/C [22]: 0.07% | viability, T/C [23]: 0.57% | viability, T/C [24]: 24.8% | viability, T/C [25]: 2.23% | viability, T/C [26]: 1.24% | viability, T/C [27]: 0.96% | viability, T/C [28]: 0.12% | viability, T/C [29]: 0.12% | viability, T/C [30]: 0.18%

CC(=O)Nc1cccc(-n2c(=O)n(C3CC3)c(=O)c3c(Nc4ccc(I)cc4F)n(C)c(=O)c(C)c32)c1 + C=CC(=O)N1CCN(c2nc(OCC3CCCN3C)nc3c2CCN(c2cccc4cccc(C)c24)C3)CC1CC#N
IC50 (second compound 0.0316 µM): 31.6 nM | IC50 (second compound 0.1 µM): > 31.6 nM | IC50 (second compound 0.316 µM): 23.1 nM | IC50 (second compound 1 µM): > 31.6 nM | IC50 (second compound 3.16 µM): 5.99 nM | viability, T/C (second compound 0.0316 µM, first compound 0.0001 µM): 92% | viability, T/C (second compound 0.0316 µM, first compound 0.000316 µM): 94.8% | viability, T/C (second compound 0.0316 µM, first compound 0.001 µM): 119% | viability, T/C (second compound 0.0316 µM, first compound 0.00316 µM): 128% | viability, T/C (second compound 0.0316 µM, first compound 0.01 µM): 101% | viability, T/C (second compound 0.0316 µM, first compound 0.0316 µM): 49.8% | viability, T/C (second compound 0.1 µM, first compound 0.0001 µM): 84% | viability, T/C (second compound 0.1 µM, first compound 0.000316 µM): 92.6% | viability, T/C (second compound 0.1 µM, first compound 0.001 µM): 97.5% | viability, T/C (second compound 0.1 µM, first compound 0.00316 µM): 111% | viability, T/C [1]: 94.9% | viability, T/C [2]: 50.5% | viability, T/C (second compound 0.316 µM, first compound 0.0001 µM): 83.6% | viability, T/C (second compound 0.316 µM, first compound 0.000316 µM): 92.1% | viability, T/C (second compound 0.316 µM, first compound 0.001 µM): 96.7% | viability, T/C (second compound 0.316 µM, first compound 0.00316 µM): 110% | viability, T/C [7]: 92.1% | viability, T/C [8]: 33.9% | viability, T/C (second compound 1 µM, first compound 0.0001 µM): 110% | viability, T/C (second compound 1 µM, first compound 0.000316 µM): 95% | viability, T/C (second compound 1 µM, first compound 0.001 µM): 102% | viability, T/C (second compound 1 µM, first compound 0.00316 µM): 106% | viability, T/C [13]: 71.4% | viability, T/C [14]: 53.4% | viability, T/C (second compound 3.16 µM, first compound 0.0001 µM): 62.2% | viability, T/C (second compound 3.16 µM, first compound 0.000316 µM): 107% | viability, T/C (second compound 3.16 µM, first compound 0.001 µM): 105% | viability, T/C (second compound 3.16 µM, first compound 0.00316 µM): 121% | viability, T/C [19]: 5.74% | viability, T/C [20]: 16.1%

CC1(C)CCC(CN2CCN(c3ccc(C(=O)NS(=O)(=O)c4ccc(NCC5CCOCC5)c([N+](=O)[O-])c4)c(Oc4cnc5[nH]ccc5c4)c3)CC2)=C(c2ccc(Cl)cc2)C1 + CC1OCC2(CCN(c3cnc(Sc4ccnc(N)c4Cl)c(N)n3)CC2)C1N
IC50 (second compound 0.1 µM): 2220 nM | IC50 (second compound 0.316 µM): 2230 nM | IC50 (second compound 1 µM): 2140 nM | IC50 (second compound 3.16 µM): 2360 nM | IC50 (second compound 10 µM): 1970 nM | viability, T/C [2]: 103% | viability, T/C [3]: 88.4% | viability, T/C [4]: 116% | viability, T/C [5]: 114% | viability, T/C [6]: 25.6% | viability, T/C [31]: 11.1% | viability, T/C [8]: 102% | viability, T/C [9]: 104% | viability, T/C [10]: 119% | viability, T/C [11]: 96.9% | viability, T/C [12]: 29.6% | viability, T/C [32]: 3.21% | viability, T/C [14]: 99% | viability, T/C [15]: 110% | viability, T/C [16]: 119% | viability, T/C [17]: 110% | viability, T/C [18]: 19.3% | viability, T/C [33]: 4.73% | viability, T/C [20]: 122% | viability, T/C [21]: 126% | viability, T/C [22]: 111% | viability, T/C [23]: 119% | viability, T/C [24]: 26.6% | viability, T/C [34]: 4.06% | viability, T/C [26]: 69% | viability, T/C [27]: 78.2% | viability, T/C [28]: 131% | viability, T/C [29]: 141% | viability, T/C [30]: 11.5% | viability, T/C [35]: 2%

COC(=O)c1ccc2c(C(=Nc3ccc(N(C)C(=O)CN4CCN(C)CC4)cc3)c3ccccc3)c(O)[nH]c2c1 + C=CC(=O)N1CCN(c2nc(=O)n(-c3c(C)ccnc3C(C)C)c3nc(-c4c(O)cccc4F)c(F)cc23)C(C)C1
IC50 (second compound 0.1 µM): 633 nM | IC50 (second compound 0.316 µM): 738 nM | IC50 (second compound 1 µM): 513 nM | IC50 (second compound 3.16 µM): 472 nM | IC50 (second compound 10 µM): 444 nM | viability, T/C [2]: 83.3% | viability, T/C [3]: 88.2% | viability, T/C [4]: 72.2% | viability, T/C [5]: 35.4% | viability, T/C [6]: 0.37% | viability, T/C [31]: 0.76% | viability, T/C [8]: 76.2% | viability, T/C [9]: 82.6% | viability, T/C [10]: 77.7% | viability, T/C [11]: 40% | viability, T/C [12]: 0.17% | viability, T/C [32]: 0.12% | viability, T/C [14]: 77.3% | viability, T/C [15]: 75.7% | viability, T/C [16]: 85.6% | viability, T/C [17]: 9.2% | viability, T/C [18]: 0.13% | viability, T/C [33]: 0.13% | viability, T/C [20]: 83% | viability, T/C [21]: 76.4% | viability, T/C [22]: 71.6% | viability, T/C [23]: 9.78% | viability, T/C [24]: 1.23% | viability, T/C [34]: 0.13% | viability, T/C [26]: 71.2% | viability, T/C [27]: 67% | viability, T/C [28]: 68.7% | viability, T/C [29]: 5.2% | viability, T/C [30]: 0.99% | viability, T/C [35]: 0.17%

CC1COCCN1c1cc(-c2ccnn2C)c2ccnc(-c3ccn[nH]3)c2n1 (configuration not stated)
viability, T/C (compound 0.01 µM): 110% [middle of 5 runs] | viability, T/C (compound 3.16 µM): 60% [middle of 5 runs]

Source: PubChem BioAssay AID1963865 (Molecular Pharmacology Branch, DTP, NCI, 2024)
